# Assay results published in US20240360153A1 (Regeneron Pharmaceuticals, Inc., priority 2023, published 2024).
# pIC50: −log10 of the molar value.
# Tests used:
# [1] = In vitro microsomal metabolic stability, CD-1 mouse liver microsomes; assay type: in vitro ADME; conditions: for Remaining (T = 60 min): with NADPH; for Remaining (T = NCF60 min): without NADPH regenerating system; for Remaining (T = 60 min) / Remaining (T = NCF60 min): 60 min
# Description: (§1) Buffers: PBK Buffer: 50 mM potassium phosphate buffer (PPB), pH 7.2, with 3.3 mM Magnesium Chloride.
# (§2) TA Intermediate solution: Compound or control (3 μL) diluted from stock solution (10 mM) with 297 μL 90.0% methanol/water. (Conc: 100 μM; 1.0% DMSO, 89.1% MeOH).
# (§3) Control cocktail intermediate solution: Each control (3 μL) was diluted with 291 μL 90.0% methanol/water.
# (§4) Diluted TA intermediate stock solution and PC control stock were made by transferring 80 μL of 100 μM TA stock solution into new tubes and then adding 720 μL of 1.0% DMSO in 50 mM potassium phosphate buffer (conc. 10 μM; 1.0% DMSO, 8.91% MeOH).
# (§5) Preparation of Liver microsomes working solution (1.25×)(final Conc.: 0.5 mg/mL).
# (§6) Acetonitrile:methanol (9:1, v/v)(including 200 ng/mL tolbutamide and 200 ng/ml labetalol hydrochloride as internal standards).
# (§7) Working solution: Intermediate solution (80 μL) was diluted with 720 μL 1.0% DMSO in 50 mM potassium phosphate buffer (Conc.: 10 μM; 1.0% DMSO, 8.91% MeOH)
# (§8) Procedure: Stock solution was added to each of the time point plates. Microsomes solution (360 μL/well), TA/PC (45 μL/well), and NADPH (45 μL/well) min. (Conc: 1.0 μM, 0.10% DMSO, 0.891% MeOH) were added to the incubation plates. To the T60 and NCF60 plate, TA (15 ul/well) and Microsomes (120 ul) were added. To the blank plate, microsome (50 ul/well) with stop solution (150 ul/well) were added. At the end of each time point, 50 ul/well was aliquoted from the incubation plate. The sampling plates were shaken for approximately 10 min. on a shaker and the samples were centrifuged at 4000 rpm for 15 min. Supernatant (120 μL) was transferred for LC/MS/MS.Compounds from Table 3 were incubated at 37° C. with liver microsomes (pooled from multiple donors) at 1 μM in the presence of a NADPH regenerating system at 0.5 mg/ml microsomal protein. Positive controls included testosterone (3A4 substrate), propafenone (2D6) and diclofenac (2C9), which were incubated with microsomes in the presence of an NADPH regenerating system. At time points (0, 5, 10, 20, 30 and 60 minutes), samples were removed and immediately mixed with cold acetonitrile containing the internal standard (IS). Test compounds incubated with microsomes without the NADPH regenerating system for 60 min are also included. A single point for each test condition (n=1) was obtained, and samples were analyzed by LC/MS/MS. Disappearance of the test compound was assessed based on peak area ratios of analyte/IS (no standard curve).
# [2] = In vitro microsomal metabolic stability, human liver microsomes; assay type: in vitro ADME; conditions: for Remaining (T = 60 min): with NADPH; for Remaining (T = NCF60 min): without NADPH regenerating system; for Remaining (T = 60 min) / Remaining (T = NCF60 min): 60 min
# Description: as §1, §2, §3, §4, §5, §6, §7, §8
# [3] = system: S6K1 (Thr389) phosphorylation (mTORC1 activity) in FKBP12 knock-out 293T cells; test: Inhibition of S6K1 (Thr389) phosphorylation in FKBP12 knock-out 293T cells (ELISA); assay type: cell-based, human; conditions: for selectivity for FKBP12 compared with RAD001 (in words): wild-type versus FKBP12 knock-out cells; for inhibition at 10 µM: Homo sapiens, HEK-293T, 10 μM (highest tested concentration)
# Description: Example Generation of FKBP 12 knock-out cells. A CRISPR/Cas9 system was used to deliver ribonucleoprotein complexes containing guide RNA sequences that target FKBP12 (ac[…], location 1369062; ccactactcac[…], location 1369181) in HEK293T cells using Lipofectamine CRISPRMAX transfection reagent (Invitrogen CMAX00008). Cell clones were screened by immunoblotting with anti-FKBP-specific antibody (Novus, NB300-508). Single cells that were deficient for FKBP12 protein were selected and cloned.
# (§9) Treatment of wild-type (WT) and FKBP12 knock-out 293T cells with RAD001 (everolimus) and test compounds. WT and FKBP12 knock-out 293T cells were cultured in Dulbecco's modified Eagle's medium (Gibco #11971-025) supplemented with 10% fetal bovine serum (Gibco #26140-079). Cells were plated at a density of 15,000 cells per well in poly-D-Lysine coated 96-well plates (Corning, #354461) and were incubated at 37° C., 5% CO2 for 24 hours until they reached ˜80% confluence. Cells were treated with RAD001 or test compounds reconstituted in dimethyl sulfoxide (DMSO) using a 8-11-point dose range, from 0.001 pM to 10 μM. All treatments were performed in duplicates for 2 hours at 37° C. Cell culture media supplemented with blank dimethyl sulfoxide (DMSO) was used as a negative control for all compounds. Phosphorylated amounts of S6K1 (Thr389) were measured using an ELISA kit (Invitrogen 85-86052-11), following the manufacture's protocol.
# (§10) S6K1 is an immediate downstream target of mTORC1 and therefore phosphorylation of S6K1 at Thr389 residue is used to measure mTORC1 activity (PMID: 16968213). Amounts of phosphorylated S6K1 (Thr389) were measured in WT and FKBP12 knock-out 293T cells treated with either RAD001 or Compound 44 (FIGS. 1A and 1B), and Compound 45 (FIGS. 1C and 1D).
# [4] = system: S6K1 (Thr389) phosphorylation (mTORC1 activity) in wild-type (WT) 293T cells; test: Inhibition of S6K1 (Thr389) phosphorylation in wild-type 293T cells (ELISA); assay type: cell-based, human; conditions: for pIC50: Homo sapiens, HEK-293T, 2 h, wild-type 293T cells, 2 hours treatment; for fold lower potency compared with RAD001 (by IC50) / extent of inhibition of S6K1 (Thr389) phosphorylation: wild-type cells; for extent of inhibition of S6K1 (Thr389) phosphorylation: with increasing concentrations
# Description: as §9, §10
# [5] = Mouse liver microsomes, 1 μM, 0.5 mg/ml protein, NADPH
# [6] = CD-1, mouse, mouse liver microsomes, pH 7.2
# [7] = human, human liver microsomes, pH 7.2
Compound,Remaining (T = 60 min) ([1]; Mouse liver microsomes) [%],Remaining (T = NCF60 min) ([1]; Mouse liver microsomes) [%],inhibition of S6K1 (Thr389) phosphorylation in the absence of FKBP12 (in words) ([3]; FKBP12 knock-out cells),selectivity for FKBP12 compared with RAD001 (in words) [3],pIC50 [4],fold lower potency compared with RAD001 (by IC50) [4] [fold],extent of inhibition of S6K1 (Thr389) phosphorylation [4],other results
"CO[C@H]1C[C@@H]2CC[C@@H](C)[C@@](O)(O2)C(=O)C(=O)N2CCCC[C@H]2C(=O)O[C@H]([C@H](C)C[C@@H]2CC[C@@H](O)[C@H](OC)C2)CC[C@H](C)/C=C(\C)[C@@H](O)[C@@H](OC)C(=O)[C@H](C)C[C@H](C)/C=C/C=C/C=C/1C [32-Deoxo Rapamycin, 32-deoxorapamycin, reference compound]",36,110,,,,,,"CL ([1]; Mouse liver microsomes): 35.1 µL/min/mg; CLint ([1]; Mouse liver microsomes): 139 mL/min/kg; T1/2 [1, 5]: 39.5 min; CL ([2]; Human liver microsomes): 405 µL/min/mg; CLint ([2]; Human liver microsomes): 364 mL/min/kg; T1/2 ([2]; Human liver microsomes, 1 μM, 0.5 mg/ml protein, NADPH): 3.4 min; Remaining (T = 60 min) ([2]; Human liver microsomes): 0.00%; Remaining (T = NCF60 min) ([2]; Human liver microsomes): 96%"
CO[C@@H]1C[C@H](C[C@@H](C)[C@@H]2CC[C@H](C)/C=C(\C)[C@@H](O)[C@@H](OC)C(=O)[C@H](C)C[C@H](C)/C=C/C=C/C=C(\C)C(Nc3cnccn3)C[C@@H]3CC[C@@H](C)[C@@](O)(O3)C(=O)C(=O)N3CCCCC3C(=O)O2)CC[C@H]1O (stereo partly shown) [Compound 52],,,did not inhibit S6K1 (Thr389)phosphorylation at any tested concentrations,selective to FKBP12,8.04,25,near complete inhibition,
"COC1C(=O)[C@H](C)C[C@H](C)/C=C/C=C/C=C(\C)C(NS(=O)(=O)c2cccc(C)c2)C[C@@H]2CC[C@@H](C)[C@@](O)(O2)C(=O)C(=O)N2CCCC[C@H]2C(=O)OC([C@H](C)CC2CC[C@@H](O)C(OC)C2)CC[C@H](C)/C=C(\C)C1O (stereo partly drawn) [Compound 72, N-((3S,6S,7E,9R,10R,12R,14S,15E, 17E,19E,23S,26R,27R,34aS)-9,27-dihydroxy-3-((R)-1-((1S,3R,4R)-4-hydroxy-3-methoxycyclohexyl)propan-2-yl)-10-methoxy-6,8,12,14,20,26-hexamethyl-1,11,28,29-tetraoxo-1,4,5,6,9,10,11,12,13,14,21,22,23,24,25,26,27,28,29,31,32,33,34,34a-tetracosahydro-3H-23,27-epoxypyrido[2,1-c][1]oxa[4]azacyclohentriacontin-21-yl)-3-methylbenzenesulfonamide]",,,inhibited S6K1 (Thr389)phosphorylation in a dose dependent manner,,9.04,5.2,near complete inhibition,inhibition at 10 µM ([3]; FKBP12 knock-out cells): 40%
"COc1ccc(NC2C[C@@H]3CC[C@@H](C)[C@@](O)(O3)C(=O)C(=O)N3CCCCC3C(=O)O[C@H]([C@H](C)C[C@@H]3CC[C@@H](O)[C@H](OC)C3)CC[C@H](C)/C=C(\C)[C@@H](O)[C@@H](OC)C(=O)[C@H](C)C[C@H](C)/C=C/C=C/C=C/2C)cc1 (stereo partly drawn) [Compound 47, (3S,6S,7E,9R,10R,12R,14S,15E,17E,19E,23S,26R,27R,34aS)-9,27-dihydroxy-3-((R)-1-((1S,3R,4R)-4-hydroxy-3-methoxycyclohexyl)propan-2-yl)-10-methoxy-21-((4-methoxyphenyl)amino)-6,8,12,14,20,26-hexamethyl-5,6,9,10,12,13,14,21,22,23,24,25,26,27,32,33,34,34a-octadecahydro-3H-23,27-epoxypyrido[2,1-c][1]oxa[4]azacyclohentriacontine-1,11,28,29(4H,31H)-tetraone]",,,did not inhibit S6K1 (Thr389)phosphorylation at any tested concentrations,relatively more selective to FKBP12 compared with RAD001,7.16,219,near complete inhibition,
"COC1C(=O)[C@H](C)C[C@H](C)/C=C/C=C/C=C(\C)C(N(C)S(=O)(=O)c2ccccc2)C[C@@H]2CC[C@@H](C)[C@@](O)(O2)C(=O)C(=O)N2CCCC[C@H]2C(=O)OC([C@H](C)CC2CC[C@@H](O)C(OC)C2)CC[C@H](C)/C=C(\C)C1O (stereo partly drawn) [Compound 73, N-((3S,6S,7E,9R,10R,12R,14S,15E, 17E,19E,23S,26R,27R,34aS)-9,27-dihydroxy-3-((R)-1-((1S,3R,4R)-4-hydroxy-3-methoxycyclohexyl)propan-2-yl)-10-methoxy-6,8,12,14,20,26-hexamethyl-1,11,28,29-tetraoxo-1,4,5,6,9,10,11,12,13,14,21,22,23,24,25,26,27,28,29,31,32,33,34,34a-tetracosahydro-3H-23,27-epoxypyrido[2,1-c][1]oxa[4]azacyclohentriacontin-21-yl)-N-methylbenzenesulfonamide]",,,,not FKBP12 selective,8.65,13,near complete inhibition,concentration achieving 20% inhibition of S6K1 (Thr389) phosphorylation ([3]; FKBP12 knock-out cells): 2.7 nM; inhibition at 10 µM ([3]; FKBP12 knock-out cells): ~60%
Rapamycin [reference compound],27,102,,,,,,"CL ([1]; Mouse liver microsomes): 43.1 µL/min/mg; CLint ([1]; Mouse liver microsomes): 171 mL/min/kg; T1/2 [1, 5]: 32.1 min"
"CO[C@@H]1C[C@H](C[C@@H](C)[C@@H]2CC[C@H](C)/C=C(\C)[C@@H](O)[C@@H](OC)C(=O)[C@H](C)C[C@H](C)/C=C/C=C/C=C(\C)C(Nc3ccsc3)C[C@@H]3CC[C@@H](C)[C@@](O)(O3)C(=O)C(=O)N3CCCCC3C(=O)O2)CC[C@H]1O (stereo partly drawn) [Compound 60, (3S,6S,7E,9R,10R,12R,14S,15E,17E,19E,23S,26R,27R,34aS)-9,27-dihydroxy-3-((R)-1-((1S,3R,4R)-4-hydroxy-3-methoxycyclohexyl)propan-2-yl)-10-methoxy-6,8,12,14,20,26-hexamethyl-21-(thiophen-3-ylamino)-5,6,9,10,12,13,14,21,22,23,24,25,26,27,32,33,34,34a-octadecahydro-3H-23,27-epoxypyrido[2,1-c][1]oxa[4]azacyclohentriacontine-1,11,28,29(4H,31H)-tetraone]",5.6,75,,,,,,"CLint scaled at 1 µM [1, 6]: 370 mL/min/kg; microsomal CLint at 1 µM [1, 6]: 93.5 µL/min/mg; half-life at 1 µM ([1]; CD-1, pH 7.2, Mouse liver microsomes, 1 μM, 0.5 mg/ml protein, NADPH): 14.8 min; Remaining (T = 60 min) ([2]; Human liver microsomes): 6.6%; Remaining (T = NCF60 min) ([2]; Human liver microsomes): 99%; CLint scaled at 1 µM [2, 7]: 80.4 mL/min/kg; microsomal CLint at 1 µM [2, 7]: 89.3 µL/min/mg; half-life at 1 µM ([2]; pH 7.2, Human liver microsomes, 1 μM, 0.5 mg/ml protein, NADPH): 16 min"
